Source: ChEMBL document CHEMBL1201862, “PubChem BioAssay data set” (2004)
Calls of active or inactive are those of the source.

What was measured:
Bcl-2-like protein 10 = biological target: T1, Bcl-2-like protein 10 (Homo sapiens, UniProt Q9HD36); assay: Biochemical TR3 FP assay of Bcl-B inhibitor potency, EC50 (AID 1243); format: functional
T1 sequence (Q9HD36 whole entry): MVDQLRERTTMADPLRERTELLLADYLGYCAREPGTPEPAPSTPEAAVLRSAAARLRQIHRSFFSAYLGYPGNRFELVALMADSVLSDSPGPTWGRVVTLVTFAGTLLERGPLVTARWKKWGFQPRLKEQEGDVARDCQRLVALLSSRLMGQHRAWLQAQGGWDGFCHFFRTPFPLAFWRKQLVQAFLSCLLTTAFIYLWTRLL

HEK293 = assay: Fluorescence-based counterscreen for potentiators or agonists of NPY-Y2: cell-based high-throughput dose response assay to identify inhibitors of cyclic nucleotide gated ion channel (CNGC) activity. In this assay, the parental HEK293 cell line transfected with a cyclic-nucleotide gated ion channel (CNGC)-based cAMP sensor is used to measure inhibition of isoproterenol-induced CNGC activity by test compound.; format: functional; settings: Homo sapiens;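 also: stimulus is 1 µM isoproterenol at EC100 plus PDE inhibitor Ro 20-1724 at 25 µM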
[1] = biological target: Neuropeptide Y receptor type 2 (Homo sapiens, UniProt P49146); assay: Fluorescence-based cell-based high-throughput dose response assay for agonists of NPY-Y2. [Related pubchem assays: 1703 (Screening assay (CNGC inhibitors).), 1359 (Screening assay (NPY-Y2 potentiators or agonists).), 1304 (Screening assay (NPY-Y1 potentiators or agonists).), 1710 (Screening assay (NPY-Y2 agonists).), 1791 (Summary AID.)]; format: functional
Neuropeptide Y receptor type 2, sequence (P49146 whole entry): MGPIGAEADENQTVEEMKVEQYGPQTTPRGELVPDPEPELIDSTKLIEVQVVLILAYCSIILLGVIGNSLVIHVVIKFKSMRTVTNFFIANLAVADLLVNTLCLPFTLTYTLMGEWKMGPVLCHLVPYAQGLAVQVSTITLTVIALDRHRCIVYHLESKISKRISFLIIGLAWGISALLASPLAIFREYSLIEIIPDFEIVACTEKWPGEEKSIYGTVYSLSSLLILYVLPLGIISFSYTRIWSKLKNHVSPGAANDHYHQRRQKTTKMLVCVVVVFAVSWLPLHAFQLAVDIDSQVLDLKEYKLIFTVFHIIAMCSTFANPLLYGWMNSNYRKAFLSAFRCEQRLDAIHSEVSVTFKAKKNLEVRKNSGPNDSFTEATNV

[2] = biological target: Neuropeptide Y receptor type 1 (Homo sapiens, UniProt P25929); assay: Fluorescence-based counterscreen for agonists of NPY-Y2: cell-based high-throughput dose response assay for agonists of NPY-Y1.; format: functional
Neuropeptide Y receptor type 1, sequence (P25929 whole entry): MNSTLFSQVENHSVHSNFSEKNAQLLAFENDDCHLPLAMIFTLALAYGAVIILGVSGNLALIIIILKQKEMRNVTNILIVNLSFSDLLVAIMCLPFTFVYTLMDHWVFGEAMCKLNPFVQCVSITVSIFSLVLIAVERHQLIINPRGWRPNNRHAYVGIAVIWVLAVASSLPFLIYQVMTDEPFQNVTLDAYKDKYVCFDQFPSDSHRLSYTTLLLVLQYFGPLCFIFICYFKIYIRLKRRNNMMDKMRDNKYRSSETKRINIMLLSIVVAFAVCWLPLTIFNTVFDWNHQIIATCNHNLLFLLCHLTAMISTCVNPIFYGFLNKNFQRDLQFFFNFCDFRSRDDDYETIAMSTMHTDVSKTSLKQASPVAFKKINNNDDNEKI

[3] = inhibitors of intracellular T. cruzi replication, confirmation, NIH3T3 host cells, beta-gal luminescence (AID 2044); format: functional, cell-based;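 also: intracellular parasites grown in NIH/3T3 mouse fibroblasts as host cells; luminescent beta-galactosidase reporter signal from transgenic T. cruzi replicating inside host cells; inhibitors lower the luminescence signal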
[4] = HepG2 cell cytotoxicity, dose response, cytotoxicity control for Shn3 inhibitor project, CellTiter-Glo, cherry-picked (AID 624134); format: functional, cell-based
Streptococcus [5] = assay: Group A Streptococcus viability loss, dose response, counter-screen for streptokinase expression inhibitor project, luminescence, BacTiterGlo (AID 1915); format: functional, organism-based;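 also: potency for reduction of bacterial viability or growth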
[6] = cytotoxicity toward NIH3T3 fibroblasts, dose response, counter-screen, cell-based, ATP luminescence, mouse fibroblasts (AID 2010); format: functional;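 also: cells exposed to compound for about 90 hours before reading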
INS1 = assay: beta cell apoptosis inhibitors, cytokine rescue, dose response, luminescence, retest (AID 449756); format: functional, cell-based; settings: Rattus norvegicus;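 also: cell death triggered by IL-1 beta plus TNF-alpha plus IFN-gamma mixture; protective hits raise ATP signal compared with cytokine alone wells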
[7] = cytotoxicity in MIN6 insulinoma cells, dose response, cytotoxicity control, cell-based, mouse insulinoma (AID 2122); format: functional;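 also: confirmatory high-throughput counterscreen run to flag cytotoxic compounds; mouse MIN-6 beta cells carrying an insulin promoter eGFP reporter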
[8] = Shn3 3'UTR reporter inhibitors, dose response, cell-based, Clone20 osteoblasts, firefly luciferase, cherry-picked (AID 624132); format: functional;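 also: firefly luciferase luminescence from reporter carrying the Shn3 3'UTR in osteoblasts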
[9] = test system: Streptococcus sp. 'group A'; assay: growth inhibition of control SK(-) GAS strain, dose response, counter-screen for streptokinase expression inhibitor project, luminescence, kanamycin, BacTiterGlo, confirmation (AID 1900); format: functional, organism-based
Galanin receptor type 2 = biological target: T2, Galanin receptor type 2 (Homo sapiens, UniProt O43603); assay: Dose Response cell-based high-throughput screening assay to identify agonists of galanin receptor 2 (GALR2). [Related pubchem assays: 864 ]; format: functional
T2 sequence (O43603 whole entry): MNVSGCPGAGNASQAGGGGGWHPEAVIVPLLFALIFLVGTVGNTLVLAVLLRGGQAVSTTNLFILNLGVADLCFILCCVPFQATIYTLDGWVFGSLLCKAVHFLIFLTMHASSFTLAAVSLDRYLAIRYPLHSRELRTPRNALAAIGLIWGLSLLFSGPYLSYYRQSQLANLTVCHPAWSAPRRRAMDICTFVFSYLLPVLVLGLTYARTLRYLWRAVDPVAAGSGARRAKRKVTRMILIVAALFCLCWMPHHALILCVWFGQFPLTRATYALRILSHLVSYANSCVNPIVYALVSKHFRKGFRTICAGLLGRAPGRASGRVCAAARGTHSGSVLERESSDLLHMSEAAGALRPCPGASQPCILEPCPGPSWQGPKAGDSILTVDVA

[10] = control 3'UTR Renilla luciferase suppression, dose response, counter-screen for Shn3 inhibitor project, cell-based, Clone20-Shn3RL, cherry-picked (AID 624133); format: functional
[11] = insulin promoter down-regulators in MIN6 cells, imaging, high-content screening, mouse beta cells (AID 1628); format: functional
[12] = biological target: Inward rectifier potassium channel 2 (Mus musculus, UniProt P35561); assay: Manual electrophysiological patch clamp assay for SAR compounds that inhibit/block inward-rectifying potassium ion channel Kir2.1. [Related pubchem assays: 1843 (Summary assay for Kir2.1 inhibitor assays.), 1672 (Primary HTS of 305616 compounds where 2592 were identified as active.)]; format: functional
Inward rectifier potassium channel 2, sequence (P35561 whole entry): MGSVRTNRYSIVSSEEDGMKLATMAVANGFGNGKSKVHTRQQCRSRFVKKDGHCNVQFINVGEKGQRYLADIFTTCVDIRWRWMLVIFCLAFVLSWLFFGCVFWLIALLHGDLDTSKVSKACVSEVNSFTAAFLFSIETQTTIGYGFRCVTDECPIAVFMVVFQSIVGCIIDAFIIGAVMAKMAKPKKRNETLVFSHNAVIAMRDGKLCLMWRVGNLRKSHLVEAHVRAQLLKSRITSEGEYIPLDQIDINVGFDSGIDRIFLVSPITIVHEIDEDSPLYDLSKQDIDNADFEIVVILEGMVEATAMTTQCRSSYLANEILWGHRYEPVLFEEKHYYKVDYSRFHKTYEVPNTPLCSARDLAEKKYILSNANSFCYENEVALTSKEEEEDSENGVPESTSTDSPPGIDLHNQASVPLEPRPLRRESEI

[13] = enhancers of respiration in Yfh1-depleted yeast, dose response, Friedreich's ataxia, plus single-dose screen (AID 1465); format: functional;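 also: yeast depleted of Yfh1p frataxin homolog grown on glycerol needing respiration; WST-1 tetrazolium dye reduction as measure of cellular dehydrogenase metabolic activity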
Streptococcus [14] = assay: Streptococcus pyogenes growth inhibition counter-screen, dose response, counter-screen for streptokinase expression inhibitor project, luminescence, BacTiter-Glo, strain UMAA2166 (AID 2477); format: functional, organism-based
Streptokinase A = biological target: T3, Streptokinase A (Streptococcus pyogenes serotype M1, UniProt P10520); assay: Absorbance Microorganism-Based Dose Response Follow up to Identify Inhibitors of Streptokinase Expression. [Related pubchem assays: 1677 (Project Summary), 1915, 1914, 1902 (Retest at Dose), 1900 (Counter Screen), 1662 (Primary HTS)]; format: functional, Streptococcus pyogenes M1 GAS
T3 sequence (P10520 whole entry): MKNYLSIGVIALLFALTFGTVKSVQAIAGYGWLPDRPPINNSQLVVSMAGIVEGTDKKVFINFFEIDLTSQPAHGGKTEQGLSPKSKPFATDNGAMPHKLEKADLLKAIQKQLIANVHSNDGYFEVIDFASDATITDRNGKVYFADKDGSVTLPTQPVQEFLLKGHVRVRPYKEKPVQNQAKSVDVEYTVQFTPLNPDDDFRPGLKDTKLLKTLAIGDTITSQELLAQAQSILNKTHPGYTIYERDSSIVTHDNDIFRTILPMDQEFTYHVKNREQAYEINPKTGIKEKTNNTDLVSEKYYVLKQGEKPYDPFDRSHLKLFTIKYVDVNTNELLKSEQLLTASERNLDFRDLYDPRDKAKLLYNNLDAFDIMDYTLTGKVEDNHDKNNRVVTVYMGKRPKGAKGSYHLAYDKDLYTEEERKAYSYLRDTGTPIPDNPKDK

Cc1ccc2oc3cc(NCCCN(C)C)c4c(=O)c5ccccc5c(=O)c4c3[nH]c2c1
EC50 (Bcl-2-like protein 10): 0.67 µM (active)

Cc1sc2nc(SCc3ccc(C(=O)O)cc3)n(Cc3ccco3)c(=O)c2c1C
EC50 (HEK293): > 35.4 µM (not active) | EC50 [1]: > 35.4 µM (not active) | EC50 [2]: > 35.4 µM (not active)

Cc1cc(C)c2nc(NNC(=O)c3ccc(S(=O)(=O)N4CC(C)CC(C)C4)cc3)sc2c1 (centres undefined)
EC50 [3]: 1.35 µM (active) | AC50 [4]: 7.56 µM (active) | EC50 (Streptococcus [5]): 2.55 µM (active) | EC50 [6]: 3.39 µM (active) | AC50 (INS1): 1.96 µM (active) | IC50 [7]: 3.68 µM (active) | AC50 [8]: 2.28 µM (active) | EC50 [9]: 0.697 µM (active) | EC50 (Galanin receptor type 2): > 55.7 µM (not active) | AC50 [10]: 2.1 µM (active) | IC50 [11]: 4.16 µM (active)

COc1ccc(CNCc2cccc(Cl)c2)cc1
IC50 [12]: 1.12 µM (active)

COc1ccc(C2(c3ccc(O)cc3O)CC(c3ccccc3Cl)N=C(S)N2)cc1 (centres undefined)
EC50 [13]: > 100 µM (active)

COc1ccc(-c2nc(OC)c3ccccc3n2)cc1
EC50 (Streptococcus [14]): > 500 µM (not active) | EC50 (Streptokinase A): 63.2 µM (active)
